The values below come from patent US20140155415A1, “BENZ[…] BENZODIOXINE COMPOUNDS THAT INTERACT WITH G[…] FOR THE TREATMENT OF DIABETES” (priority 2011, published 2014).

pEC50, pIC50: −log10 of the molar value.

For experiment [1], the target named is T1, GK-GKRP (glucokinase / glucokinase regulatory protein) (Homo sapiens, UniProt Q14397).
T1 sequence (Q14397 1-625): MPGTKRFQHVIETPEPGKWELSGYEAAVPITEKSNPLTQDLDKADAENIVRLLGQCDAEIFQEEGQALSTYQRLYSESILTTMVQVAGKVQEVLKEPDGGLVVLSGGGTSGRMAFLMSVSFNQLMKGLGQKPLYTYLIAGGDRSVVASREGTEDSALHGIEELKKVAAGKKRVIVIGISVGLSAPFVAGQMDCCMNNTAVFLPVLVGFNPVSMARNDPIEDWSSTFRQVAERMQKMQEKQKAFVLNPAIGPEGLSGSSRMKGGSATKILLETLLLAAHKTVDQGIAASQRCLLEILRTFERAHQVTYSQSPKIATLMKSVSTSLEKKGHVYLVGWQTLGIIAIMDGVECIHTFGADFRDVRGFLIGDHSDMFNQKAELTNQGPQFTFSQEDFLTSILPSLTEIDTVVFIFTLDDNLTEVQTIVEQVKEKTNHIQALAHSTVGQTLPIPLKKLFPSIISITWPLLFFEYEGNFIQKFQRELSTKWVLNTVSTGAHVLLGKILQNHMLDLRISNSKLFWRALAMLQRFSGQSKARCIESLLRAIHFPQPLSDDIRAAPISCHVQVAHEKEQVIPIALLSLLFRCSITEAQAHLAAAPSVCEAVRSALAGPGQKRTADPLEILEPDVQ
The experiment in a line: GKRP LC MS/MS Biochemical Assay (LCMS/MS). The settings on record: formation of 13C-glucose-6-phosphate from 13C-glucose by LC MS/MS, human His-hepatic GK, fructose-6-phosphate. Here is the method: GKRP LC MS/MS Biochemical Assay (LCMS/MS)
This assay is used to directly measure the formation of ^13C-glucose-6-phosphate from ^13C-glucose by LC MS/MS. Begin by preparing the following solutions: Compound Buffer (CB): 50 mM Tris, pH 7.5/4 mM MgCl2/6% DMSO/fresh 10 mM DTT from 1M frozen stock. Enzyme Buffer (EB): 50 mM Tris, pH 7.5/4 mM MgCl2/6% DMSO/fresh 0.1% BSA/fresh 0.01% Brij-35 (10% BSA and 1% Brij-35 stock). GK (Glucokinase) Working Stock (5×): Dilute human His-hepatic GK to 30 nM in EB buffer. […] Seal the plate and incubate for 30 minutes at room temperature while mixing. After 30 minutes add 10 μl of GK Working Stock (5×). Re-seal the plate and incubate for another 30 minutes at room temperature while mixing. After the second 30 minutes, stop the reaction by the addition of 50 μl of 100% acetonitrile, seal, and mix for 5-10 minutes. Run 10 μl of this sample through the LC MS/MS (API 3200, Applied Biosystems, Carlsbad, Calif.). […]
(§1) In the Examples, the assays are referred to as “LCMS/MS” or “Binding.”

For experiment [2], the target named is T2, GK-GKRP (interaction between glucokinase and glucokinase regulatory protein) (Homo sapiens, UniProt Q14397).
T2 construct: made in house; host or cells: GKRP: baculovirus system
T2 sequence (Q14397 1-625): T1 sequence (Q14397 1-625)
Nature of the experiment: GK-GKRP Binding Assay (Binding), AlphaScreen. The settings on record: avi-tagged GKRP, GK-fluorescein, AlphaScreen beads, 1 μM sorbitol-6-phosphate; read-out: GK-GKRP IC50 (Binding). The protocol: GK-GKRP Binding Assay Protocol (Binding)
This assay is used to directly measure the interaction between glucokinase (GK) and glucokinase regulatory protein (GKRP). Begin by preparing the following solutions. Assay Buffer: 20 mM Tris, pH 7.5/0.05% BSA/1 mM DTT/1 μM sorbitol-6-phosphate. […] Combine the following reagents in a white 96-well half area plate. Pipette 14 μl of the diluted avi-tagged GKRP into each well. Add 1 μl of compound to be tested and incubate at room temperature for 20 minutes. After 20 minutes, add 5 μl of assay buffer containing 6 nM GK-fluorescein. […] Incubate in a dark room for 2 hours at room temperature. After 2 hours read the plate using an Envision plate reader (Perkin Elmer, Waltham Mass.).
Recombinant human glucokinase (hepatic) was purified and formulated in 50 mM Tris (pH 7.5), 150 mM NaCl and 20 mM glucose previous to labeling with fluorescein. […] Unreacted dye was removed by extensive dialysis into the final formulation buffer: 25 mM Tris (pH 7.2), 150 mM NaCl, 10% glycerol and 2 mM DTT. The human glucokinase regulatory protein construct was designed with a C-terminal avitag and was expressed in a baculovirus system. Purified GKRP was incubated overnight with recombinant biotin ligase in the presence of D-biotin, ATP and MgCl2. GKRP was isolated from reaction components by chromatography on a Superdex 200 size exclusion column into: 50 mM HEPES, 150 mM NaCl and 5 mM DTT. […] Proteins were quantitated according to their calculated molar extinction coefficients at A280 and were stored at −80° C.
as §1
(Alpha assays give light when donor and acceptor beads are brought close together.)

In general, pEC50 refers to the EC50 on a negative log10 scale, so that one unit is a factor of ten. A word on the pIC50: it is the negative decadic logarithm of the IC50, by convention in mol/L. On to `Cc1cccnc1[C@@H](NS(=O)(=O)c1ccc2c(c1)OCCCO2)c1cc2ccccc2o1` (single isomer, unassigned) [Example 26 Peak #2], for which the pEC50 in experiment [1] was 7.07. Besides, the pIC50 in experiment [2] is 6.92.
The like results for `O=S(=O)(N[C@H](c1ccccc1)c1cc2ccccc2s1)c1ccc2c(c1)OCCCO2` (single isomer, unassigned) [Example 57 Peak #2] were, in that order, 7.06 and 5.72.
For the compound `O=S(=O)(N[C@H](c1ccccc1)c1cc2cccc(-c3ccccn3)c2s1)c1ccc2c(c1)OCCCO2` (single isomer, unassigned) [Example 71 Peak #2], the pEC50 in experiment [1] is 6.92. Also, in experiment [2], the negative logarithm of the IC50 (pIC50) was 6.46.
The like results for `O=S(=O)(NC(c1ccccc1)c1cc2ncccc2s1)c1ccc2c(c1)OCCCO2` (racemic) [Example 61, N-(phenyl(thieno[3,2-b]pyridin-2-yl)methyl)-3,4-dihydro-2H-1,5-benzodioxepine-7-sulfonamide] were, in that order, 5.60 and 5.64.
Turning to `O=S(=O)(NC(c1cc2ccccc2o1)c1nccs1)c1ccc2c(c1)OCCCO2` (racemic) [Example 34, N-(1-benzofuran-2-yl(1,3-thiazol-2-yl)methyl)-3,4-dihydro-2H-1,5-benzodioxepine-7-sulfonamide], in experiment [1], the pEC50 was 5.55. Further, the pIC50 in experiment [2] is 5.18.
On to `O=S(=O)(N[C@@H](c1nc2cccnc2s1)c1ccccc1Cl)c1ccc2c(c1)OCCCO2` (single isomer, unassigned) [Example 68 Peak #2], for which the pEC50 in experiment [1] is 7.54. Further, the pIC50 in experiment [2] is 7.70.
The like results for `O=S(=O)(NC(c1ccccc1)c1cc2ccccc2o1)c1ccc2c(c1)OCC(F)CO2` (racemic) [Example 35, N-(1-benzofuran-2-yl(phenyl)methyl)-3-fluoro-3,4-dihydro-2H-1,5-benzodioxepine-7-sulfonamide] were, in that order, 5.51 and 5.64.
The like results for `Cc1ccccc1[C@H](NS(=O)(=O)c1ccc2c(c1)OCCCO2)c1cc2ccccc2s1` (single isomer, unassigned) [Example 36 Peak #1] were, in that order, less than 4.70 and 5.40.
For `Cc1c(C(NS(=O)(=O)c2ccc3c(c2)OCCCO3)c2ccccc2)oc2ccccc12` (racemic) [Example 44, N-((3-methyl-1-benzofuran-2-yl)(phenyl)methyl)-3,4-dihydro-2H-1,5-benzodioxepine-7-sulfonamide] the same measures were 6.32 and 6.00.
On to `CSc1ccccc1[C@@H](NS(=O)(=O)c1ccc2c(c1)OCCCO2)c1cc2ccccc2s1` (single isomer, unassigned) [Example 41 Peak #2], for which the negative-log EC50 (pEC50) in experiment [1] was 7.89. For the same compound, the negative logarithm of the IC50 (pIC50) in experiment [2] is 8.10.
The like results for `COc1ccccc1[C@@H](NS(=O)(=O)c1ccc2c(c1)OCCCO2)c1cc2ccccc2o1` (single isomer, unassigned) [Example 17 Peak #2] were, in that order, 7.28 and 7.28.
With `Cc1cc(F)ccc1C(NS(=O)(=O)c1ccc2c(c1)OCCCO2)c1cc2ccccc2o1` (racemic) [Example 3, N-(1-benzofuran-2-yl(4-fluoro-2-methylphenyl)methyl)-3,4-dihydro-2H-1,5-benzodioxepine-7-sulfonamide], the pEC50 in experiment [1] was 6.36. In addition, the pIC50 in experiment [2] was 5.74.
In experiment [1], `CCc1ccccc1[C@H](NS(=O)(=O)c1ccc2c(c1)OCCCO2)c1cc2ccccc2o1` (single isomer, unassigned) [Example 6 Peak #1] showed a pEC50 of less than 4.30. Besides, the negative logarithm of the IC50 (pIC50) in experiment [2] was 5.32.
In experiment [1], `Cc1cccnc1C(NS(=O)(=O)c1ccc2c(c1)OCCCO2)c1cc2ccccc2o1` (racemic) [Example 26, N-(1-benzofuran-2-yl(3-methyl-2-pyridinyl)methyl)-3,4-dihydro-2H-1,5-benzodioxepine-7-sulfonamide] showed a pEC50 of 6.72. For the same compound, the negative logarithm of the IC50 (pIC50) in experiment [2] is 6.38.
For `CSc1ccccc1C(NS(=O)(=O)c1ccc2c(c1)OCCO2)c1cc2ccccc2s1` (racemic) [Example 75, N-(1-benzothiophen-2-yl(2-(methylsulfanyl)phenyl)methyl)-2,3-dihydro-1,4-benzodioxine-6-sulfonamide] the same measures were 6.47 and 6.02.
For `CSc1ccccc1C(NS(=O)(=O)c1ccc2c(c1)OCCCO2)c1cc2ccccc2s1` (racemic) [Example 41, N-(1-benzothiophen-2-yl(2-(methylsulfanyl)phenyl)methyl)-3,4-dihydro-2H-1,5-benzodioxepine-7-sulfonamide] the same measures were 7.57 and 7.24.
The like results for `O=S(=O)(NC(c1cc2ccccc2o1)c1cccs1)c1ccc2c(c1)OCCCO2` (racemic) [Example 31, N-(1-benzofuran-2-yl(2-thiophenyl)methyl)-3,4-dihydro-2H-1,5-benzodioxepine-7-sulfonamide] were, in that order, 6.13 and 5.49.
As to `Cc1ccsc1C(NS(=O)(=O)c1ccc2c(c1)OCCCO2)c1cc2ccccc2o1` (racemic) [Example 33, N-(1-benzofuran-2-yl(3-methyl-2-thiophenyl)methyl)-3,4-dihydro-2H-1,5-benzodioxepine-7-sulfonamide], the negative-log EC50 (pEC50) in experiment [1] was 5.92. Also, the negative-log IC50 (pIC50) in experiment [2] was 5.85.
Take `O=S(=O)(NC(c1ccccc1)c1nc2ccccc2o1)c1ccc2c(c1)OCCCO2` (racemic) [Example 54, N-(1,3-benzoxazol-2-yl(phenyl)methyl)-3,4-dihydro-2H-1,5-benzo dioxepine-7-sulfonamide]: the negative-log EC50 (pEC50) in experiment [1] is 6.12. In addition, the pIC50 in experiment [2] is 5.96.
In experiment [1], `O=S(=O)(N[C@@H](c1cc2ccccc2o1)c1ccccc1I)c1ccc2c(c1)OCCCO2` (single isomer, unassigned) [Example 21 Peak #2] showed a negative logarithm of the EC50 (pEC50) of 7.38. Also, the negative logarithm of the IC50 (pIC50) in experiment [2] is 7.40.
`O=S(=O)(NC(c1cccc(F)c1)c1cc2ccccc2o1)c1ccc2c(c1)OCCCO2` (racemic) [Example 24, N-(1-benzofuran-2-yl(3-fluorophenyl)methyl)-3,4-dihydro-2H-1,5-benzodioxepine-7-sulfonamide]: the pEC50 in experiment [1] was 5.74.
The compound `Cc1ccccc1C(NS(=O)(=O)c1ccc2c(c1)OCCCO2)c1cc2ccccc2o1` (racemic) [Example 2, N-(1-benzofuran-2-yl(2-methylphenyl)methyl)-3,4-dihydro-2H-1,5-benzodioxepine-7-sulfonamide] showed a pEC50 in experiment [1] of 6.96.
Still for that read-out and setting: next, `O=S(=O)(NC(c1cc2ccccc2o1)c1cccnc1Cl)c1ccc2c(c1)OCCCO2` (racemic) [Example 27, N-(1-benzofuran-2-yl(2-chloro-3-pyridinyl)methyl)-3,4-dihydro-2H-1,5-benzodioxepine-7-sulfonamide]: 5.92.
The compound `Cc1ccccc1[C@@H](NS(=O)(=O)c1ccc2c(c1)OCCCO2)c1cc2ccccc2o1` (single isomer, unassigned) [Example 2 Peak #2] had a negative logarithm of the EC50 (pEC50) in experiment [1] of 7.37.
